Measured values published in patent publication US9326973B2, “Hepatitis C virus inhibitors” (priority 2012, dated 2016).

What was measured:
Assay type in all cases: cell-based, HCV genotype 1a
[1] = system: HCV replicon, genotype 1a Y93H variant with tyrosine 93 changed to histidine in the NS5A protein; details: test compound titrated in combination with a fixed 200 nM compound N47; genotype 1a Y93H replicon
Description: Combinations can be examined for synergistic activity using a variety of putative NS5A-targeting compounds and a variety of test compounds. […] The test compound can be chosen from compounds exemplified below, which were prepared by methods known in the art, or from others disclosed in the literature.
Similarly, BMS-790052 can be tested singly and in combination with a fixed amount of compound N47 in the HCV replicon cell based assay consisting of the genotype 1a Y93H variant with tyrosine 93 changed to histidine in the NS5A protein.

[2] = system: HCV replicon, genotype 1a L31V variant with leucine 31 changed to valine in the NS5A protein; details: test compound titrated in combination with a fixed 200 nM compound N47; genotype 1a L31V replicon
[3] = system: HCV replicon, genotype-1a variant with glutamine 30 changed to glutamate in the NS5A protein; assay: microbe, parasite or virus in culture; details: HCV replicon genotype 1a Q30E (Q→E) variant; test compound titrated with an NS5A-targeting compound (BMS-790052 fixed at 200 nM); ranking of synergist activity
Outline: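 Synergy was assessed by combining several fixed amounts of an NS5A-targeting compound with a titration of the second compound of interest.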

| Compound | Fold-Synergistic G-1a (Y93H) [1] [Fold] | Fold-Synergistic G-1a (L31V) [2] [Fold] | Fold-Synergistic 1a (Q30E) [3] [fold] |
| --- | --- | --- | --- |
| O=C(Nc1ccc(/C=C/c2ccc(NC(=O)[C@@H]3CCCN3C(=O)Cc3ccccc3)cc2)cc1)C1CCCN1C(=O)Cc1ccccc1 (some centres unmarked) | <10 | <10 | – |
| O=C(Nc1ccc(/C=C/c2ccc(NC(=O)[C@@H]3CCCN3C(=O)Cc3cccnc3)nc2)cn1)C1CCCN1C(=O)Cc1cccnc1 (some centres unmarked) | <10 | <10 | – |
| CN(C)[C@@H](C(=O)N1CCCC1c1cnc(-c2ccc3nc([C@@H]4CCCN4C(=O)[C@@H](c4ccccc4)N(C)C)[nH]c3c2)o1)c1ccccc1 (some centres unmarked) | <10 | <10 | – |
| COC(=O)N[C@@H](C(=O)N1CCC[C@H]1c1ncc(-c2ccc(-c3ccc(-c4cnc([C@@H]5CCCN5C(=O)[C@H](NC(=O)OC)c5ccccc5)[nH]4)cc3)cc2)[nH]1)c1ccccc1 | – | <10 | – |
| CN(C)[C@@H](C(=O)N1CCCC[C@H]1c1ncc(-c2ccc(-c3ccc(-c4cnc([C@@H]5CCCCN5C(=O)[C@@H](c5ccccc5)N(C)C)[nH]4)cc3)cc2)[nH]1)c1ccccc1 | <10 | – | – |
| COC(=O)N[C@H](C(=O)N1CCC[C@H]1c1nc2cc(C#Cc3ccc4[nH]c([C@@H]5CCCN5C(=O)[C@@H](NC(=O)OC)C(C)C)nc4c3)ccc2[nH]1)C(C)C | <10 | – | – |
| COC(=O)N[C@@H](C)C(=O)N1[C@@H]2CC[C@@H](C2)[C@H]1c1nc(-c2ccc(-c3ccc(C4=CNC([C@@H]5[C@H]6CC[C@H](C6)N5C(=O)[C@H](C)NC(=O)OC)N4)cc3)cc2)c[nH]1 (some centres unmarked) | <10 | >10 | – |
| COC(=O)N[C@H](C(=O)N1C[C@H](C)C[C@H]1c1ncc(-c2ccc(-c3ccc(-c4cnc([C@@H]5C[C@@H](C)CN5C(=O)[C@@H](NC(=O)OC)C(C)C)[nH]4)cc3)cc2)[nH]1)C(C)C | >100 | >100 | – |
| COC(=O)N[C@H](C(=O)N1CCC[C@H]1C1=C(c2ccc(C#Cc3ccc4[nH]c([C@@H]5CCCN5C(=O)[C@@H](NC(=O)OC)C(C)C)nc4c3)cc2)NCN1)C(C)C | >10 | <10 | – |
| COC(=O)N[C@@H](C(=O)N1CCCC1c1ncc(C#CC#Cc2cnc([C@@H]3CCCN3C(=O)[C@H](NC(=O)OC)c3ccccc3)[nH]2)[nH]1)c1ccccc1 (some centres unmarked) | <10 | <10 | – |
| COC(=O)NC(C(=O)N1[C@@H]2C[C@@H]2C[C@H]1c1nc2ccc(-c3ccc4cc(-c5ccc6nc([C@@H]7C[C@H]8C[C@H]8N7C(=O)[C@@H](NC(=O)OC)C(C)C)[nH]c6c5)ccc4c3)cc2[nH]1)C(C)C (some centres unmarked) | >10 | >10 | – |
| COC(=O)N[C@H](C(=O)N1C(c2nc3ccc4cc(C#Cc5ccc6c(ccc7nc([C@@H]8CC9CC9N8C(=O)[C@@H](NC(=O)OC)C(C)C)[nH]c76)c5)ccc4c3[nH]2)C[C@H]2C[C@H]21)C(C)C (some centres unmarked) | >100 | <10 | – |
| COC(=O)N[C@H](C(=O)N1[C@@H]2C[C@@H]2C[C@H]1C(=O)Nc1ccc(C23CC4C5CC6(c7ccc(NC(=O)[C@@H]8C[C@H]9C[C@H]9N8C(=O)[C@@H](NC(=O)OC)C(C)C)cc7)CC4C(C2)C(C6)C5C3)cc1)C(C)C | <10 | <10 | – |
| COC(=O)NC(C(=O)N1[C@@H]2C[C@@H]2C[C@H]1c1ncc(-c2cccc(-c3ccc4cc(-c5cnc([C@H]6C[C@@H]7C[C@@H]7N6C(=O)[C@@H](NC(=O)OC)C(C)C)[nH]5)ccc4c3)c2)[nH]1)C(C)C (some centres unmarked) | >10 | <10 | – |
| COC(=O)N[C@H](C(=O)N1[C@@H]2C[C@@H]2C[C@H]1c1ncc(-c2ccc(C3C[C@H]3c3ccc(-c4cnc([C@@H]5C[C@H]6C[C@H]6N5C(=O)[C@@H](NC(=O)OC)C(C)C)[nH]4)cc3)cc2)[nH]1)C(C)C (some centres unmarked) | >10 | >10 | – |
| COC(=O)N[C@H](C(=O)N1CCC[C@H]1c1cn(-c2ccc(-c3ccc(-n4cnc([C@@H]5CCCN5C(=O)[C@@H](NC(=O)OC)C(C)C)c4)cc3)cc2)cn1)C(C)C | >10 | >10 | – |
| COC(=O)NC(C(=O)N1[C@@H](C)CC[C@H]1C1=NCC(c2ccc(-c3cnc(-c4cnc([C@@H]5CC[C@H](C)N5C(=O)[C@@H](NC(=O)OC)[C@H]5C[C@@H](C)O[C@@H](C)C5)[nH]4)c4cccn34)cc2)N1)[C@H]1C[C@@H](C)O[C@@H](C)C1 (some centres unmarked) | >100 | >10 | – |
| CC(C)(C)[C@H](NC(=O)[C@@]1(C)CC(F)(F)CO1)c1nc(-c2ccc(-c3ccc(-c4c[nH]c([C@@H](NC(=O)[C@@]5(C)CC(F)(F)CO5)C(C)(C)C)n4)cc3)cc2)c[nH]1 [Compound Y-77] | – | – | >100 |
| CC(C)[C@H](NC(=O)[C@@]1(C)CCC(F)(F)CO1)c1nc(-c2ccc(-c3ccc(-c4c[nH]c([C@@H](NC(=O)[C@@]5(C)CCC(F)(F)CO5)C(C)C)n4)cc3)cc2)c[nH]1 [Compound Y-78] | – | – | >100 |
| CC(C)[C@H](NC(=O)[C@@]1(C)CC(F)(F)CCO1)c1nc(-c2ccc(-c3ccc(-c4c[nH]c([C@@H](NC(=O)[C@@]5(C)CC(F)(F)CCO5)C(C)C)n4)cc3)cc2)c[nH]1 [Compound Y-79] | – | – | >100 |
| CC(C)[C@H](NC(=O)[C@@]1(C)CC(F)(F)CO1)c1nc(-c2ccc(-c3ccc(-c4c[nH]c([C@@H](NC(=O)[C@@]5(C)CC(F)(F)CO5)C(C)C)n4)cc3)cc2)c[nH]1 [Compound Y-80] | – | – | >100 |
| CC1([C@H](NC(=O)[C@@]2(C)CCC(F)(F)CO2)c2nc(-c3ccc(-c4ccc(-c5c[nH]c([C@@H](NC(=O)[C@@]6(C)CCC(F)(F)CO6)C6(C)CC6)n5)cc4)cc3)c[nH]2)CC1 [Compound Y-81] | – | – | >100 |
| CC1([C@H](NC(=O)[C@@]2(C)CC(F)(F)CCO2)c2nc(-c3ccc(-c4ccc(-c5c[nH]c([C@@H](NC(=O)[C@@]6(C)CC(F)(F)CCO6)C6(C)CC6)n5)cc4)cc3)c[nH]2)CC1 [Compound Y-82] | – | – | >100 |
| CC1([C@H](NC(=O)[C@@]2(C)CC(F)(F)CO2)c2nc(-c3ccc(-c4ccc(-c5c[nH]c([C@@H](NC(=O)[C@@]6(C)CC(F)(F)CO6)C6(C)CC6)n5)cc4)cc3)c[nH]2)CC1 [Compound Y-83] | – | – | >100 |
